From article PMC5335257, “Promoting in vivo remyelination with small molecules: a neuroreparative pharmacological treatment for Multiple Sclerosis” (Scientific Reports, 2017)
“Also recorded” adds a separate entry of the source.

Assays:
[1] = system: OPCs; parameters: method as in PMID 23661015; conditions: cited from earlier work
[2] = system: corpus callosum of LPC-injected mice; assay: In vivo remyelination, LPC demyelination model; parameters: species or system C57/BL6 male mice; conditions: 10 mg/kg i.p. from 9 dpi
Description: Anaesthetized 8 week old C57/BL6 male mice were injected with 2 μl of 1% LPC through a hole drilled in the skull at stereotactic coordinates 1.2 mm posterior, 0.5 mm lateral, 1.4 mm deep to the bregma over 4 minutes using a 30-gauge needle attached to a Hamilton syringe, driven by a KD Scientific Nano pump, for 4 minutes to reduce backflow as previously described. At 9 days post injection (dpi), the first intraperitoneal dose of PDE7-GSK3 inhibitors (VP1.15 or VP3.15; 10 mg/kg of animal) was injected using the same solution detailed above for the cuprizone model. Each inhibitor was injected into a group of 10 mice and another group of 10 mice was injected with the vehicle. Two days after, a second dose was injected (11 dpi) and 5 mice of each group were perfused at 14 dpi with 4% PFA and 2% glutaraldehyde (GTA) in phosphate buffer. The remaining 5 animals of each group received a third injection of inhibitors (15 dpi) and were perfused at 21 dpi. A control group of 3 non-lesioned and non-treated mice was used as control. Fixed brains were post-fixed in 1% GTA for 7 days and then coronally cut into 1 mm slices. The slices containing the injected areas were selected and the area of interest was cut and processed for electron microscopy into a resin (Araldite/TAAB 812 Resin Kit, TAAB) following manufacturer instructions.
In order to detect the injured areas for investigation, sagittal semi-thin sections (1 μm) were cut using an ultramicrotome (Leica) and stained with toluidine blue. Ultra-thin sections (60 nm thick) were cut and stained in uranyl acetate and lead citrate and the ultrastructure was analysed taking images with a GatanOrius CCD camera coupled to a transmission electronic microscope (Philips CM120). The percentage of myelinated fibres and the thickness of myelin sheaths were examined. The mean percentage of myelinated fibres was measured from 10 fields per animal. Grids were overlaid onto the images and all axons intersecting with the grid lines were counted as myelinated or not[83][84]. The thickness of myelin around myelinated fibres was expressed as a g-ratio (axon perimeter divided by myelinated fibre perimeter) using ImageJ by tracing around a minimum of 100 individual fibres per mouse, using a pen and electronic pad (Bamboo pad, Wacom). To select the fibres randomly, a grid composed by 8 μm[2] squares was overlaid onto the images and fibres in alternate squares were measured. Data were expressed as the mean ± SEM.

[3] = system: spinal cord injury models; parameters: method as in PMID 21297958, PMID 23077723; conditions: spinal cord injury models (as well as EAE); cited from earlier work
[4] = system: cerebellar slices demyelinated with LPC; assay: Ex vivo remyelination in cerebellar slice cultures demyelinated with LPC; assay type: cell-based, CD1 P7 mice; conditions: 5 μM, 3 days post lesion (3DPL)
Description: The protocol used was modified from previously described. CD1 P7 mice were decapitated, and their cerebella were dissected into ice-cold HBSS (Invitrogen). 300 μm sagittal slices of cerebellum were cut using a McIllwain tissue chopper, placed on Millicell-CM organotypic culture inserts (3 slices per insert; Millipore) in a medium containing HBSS:BME: horse serum (1:2:1, Invitrogen), 28 mM D (+) - glucose (Normapur), […] L-Glutamine (Invitrogen) and 100 U/mL penicillin, 0.1 mg/mL streptomycin and 0.25 μg/ml Amphotericin B antibiotic anti-mycotic solution (Sigma) and maintained at 5% CO2 and 37 °C. Medium was changed every two days, and after 7 days in culture, demyelination was induced by addition of 0.5 mg/ml LPC (Sigma) to the medium for 15 h. After that, slices were treated with fresh medium containing PDE7-GSK3 or GSK3 inhibitors (VP1.15, VP3.15 or TDZD8; 5 μM). Cultures were maintained for 1 or 3 days post lesion (DPL), and then fixed for 40 minutes and immunostained with anti-MBP antibodies (myelin basic protein –as a marker of myelin; 1:200; Serotec; Cat#MCA4095) and anti-neurofilament antibody (as a marker of axons; 1:200; Abcam; Cat#ab8135). Fluorescence images were taken on a confocal SP5 resonant scanner (Leica Microsystems) at 1μm intervals in white matter areas at x40 magnification. The photographs were merged and co-localisation of both markers was quantified with Image J software using the colocalization highlighter plugin. This measurement was related to the area occupied by axons (neurofilament staining) and normalized with control values showing the data as the mean normalized myelination index ± SEM. Quantification was made in at least three independent experiments.

[5] = parameters: method as in PMID 23077723, PMID 25264825; conditions: cited from earlier work
[6] = system: PDE7; parameters: method as in PMID 24437940; conditions: read-out: PDE7 inhibition IC50; cited from earlier work
[7] = system: GSK-3; parameters: method as in PMID 24437940; conditions: read-out: GSK-3 inhibition IC50; cited from earlier work
[8] = system: corpus callosum of cuprizone-fed mice; assay: In vivo remyelination, cuprizone demyelination model; parameters: species or system C57/BL6 male mice
Description: The protocol used was modified from previously described. Demyelination was induced by feeding 8 weeks old male C57/BL6 mice ad libitum with 0.2% cuprizone (bis-cyclo-hexanone-oxaldihydrazone; Sigma) mixed with milled chow (Altromin) for 5 weeks. A control group was maintained in the same conditions but fed with the chow without cuprizone. After cuprizone withdrawal, mice were intraperitoneally injected on 3 alternate days with PDE7-GSK3 inhibitors (VP1.15 or VP3.15; 10 mg/kg of animal) using a solution of the compound (100 mg/mL in DMSO) diluted 1:50 in a solution of 5% Tocrisolve (Tocris, UK) in distilledwater[36] or with the vehicle. 1 week after the cuprizone withdrawal, mice were transcardially perfused with 4% PFA in phosphate buffer. Another group was maintained for 3 weeks after cuprizone withdrawal and injected with 3 doses per week on alternate days of the PDE7-GSK3 inhibitors (10 mg/kg of animal per dose see above) or the vehicle and then perfused. The corpus callosum of three animals per condition was studied. For histological examination, forebrain coronal sections (20 μm) were taken of the rostral part of the corpus callosum as previously described[80][81] and stained with eriochrome cyanine using a standard protocol in order to study the myelin. Briefly, cryosections on glass slides were immersed in acetone for 5 minutes, dried and submerged in eriochrome cyanine solution (Sigma) for 1 hour and then differentiated in 5% (w/v) iron alum for 5–10 minutes, followed by a second differentiation with borax-ferricyanide solution for 5 minutes. The stained area was measured with the Image J software and related to the total analyzed area. For the immunofluorescence analysis, tissue sections were stained with anti-MBP (1:200; Serotec; Cat#MCA4095) for myelin, anti-PDGFRα (1:200; Santa Cruz; Cat#sc338) for OPCs, anti-CC1 (1:100; Calbiochem, Cat#OP80) and anti-GFAP (Glial fibrillary acidic protein; 1:200; Dako; Cat#Z0334) for astrocytes, and tomato lectin (TL; 1:67; Sigma; Cat#L0651) for microglia. Optical images were acquired using an Olympus BX61 microscope and fluorescence images were taken using a DFC480 FX digital camera (Leica) coupled to a Leica DM5000 B microscope or a confocal SP5 resonant scanner (Leica). Myelin staining (with MBP and eriochrome cyanine) and CC1 staining were quantified by taking pictures of non-overlapping fields of coronal sections of the corpus callosum, between the lateral ventricles (2 fields per section, 5–6 sections of each mice; using a x20 objective) and by measuring the fluorescence intensity or blue staining using the Image J software. The number of OPCs per field was also counted in pictures of the midline of the corpus callosum using the x40 objective (4–6 sections per mice). Astrocytes and microglia were evaluated in pictures of the same area of the corpus callosum using the x40 objective and quantified by measuring the area occupied by GFAP or TL staining respectively using the Image J software (4–6 sections per mice). Data were expressed as the mean ± SEM.

Structure (SMILES): OCC/N=c1/nc(-c2ccccc2)n(-c2ccccc2)s1 [VP1.15]
- OPC differentiation (and survival) in vitro [1]: enhance OPC differentiation and survival
- thickness of myelin sheaths (G-ratio) vs untreated demyelinated control [2]: increased the thickness
- percentage of myelinated callosal fibers vs vehicle ([2]; analysed at 14 or 21 dpi): increase
- immunomodulatory effect [3]: immunomodulatory effect
- remyelination (normalized myelination index) [4]: increased
- emetic side effects [5]: without emetic side effects
- IC50 [6]: 1100 nM
- IC50 [7]: 1950 nM
- myelin staining (eriochrome cyanine) in corpus callosum vs vehicle ([8]; 10 mg/kg i.p. on 3 alternate days, 1 week after cuprizone withdrawal): significantly higher myelin staining; also recorded: almost complete remyelination
- myelin quantification by MBP immunodetection ([8]; 10 mg/kg i.p., after cuprizone withdrawal): confirmed these results, with similar effects
- microglial activation (TL staining) vs vehicle ([8]; 1 week after cuprizone withdrawal): Neither VP1.15 nor VP3.15 induced changes
- number of OPCs (PDGFRα+ cells) vs vehicle ([8]; one week after cuprizone withdrawal): significantly lower number of OPCs
